Test results as given in patent US20210206810A1, “Detection of Optimal Recombinants Using Fluorescent Protein Fusions” (priority 2019, published 2021).

What was measured:
[1] = test system: methicillin resistant Staphylococcus aureus (MRSA); conditions: microbial species including MRSA; cited from earlier work
Micrococcus luteus = test: Determination of minimum inhibitory concentration (MIC); assay type: cell-based; conditions: visual inspection after 24 hours at 37° C. in MHB; tested 0.25 to 32 μg/mL

Substance: epidermicin-N101
- cytotoxicity to microbial species [1]: highly cytotoxic
- minimum inhibitory concentration (growth of Micrococcus luteus) (Micrococcus luteus): 2 µg/mL
